{"source": "patent US20170052170A1", "about": "“NOVEL CELL LINES AND METHODS” (priority 2009, published 2017)", "molecular_target": "T1, sweet taste receptor (human T1R2 and T1R3 subunits, mouse Gα15) (Homo sapiens, UniProt Q7RTX0+Q8TE23, C757R/I191V/I486V/R317G)", "T1 construct": "expressed in transfected cells; host or cells: HEK293T (ATCC CRL-11268)", "T1 sequence (Q8TE23 20-839 I191V/R317G/I486V)": "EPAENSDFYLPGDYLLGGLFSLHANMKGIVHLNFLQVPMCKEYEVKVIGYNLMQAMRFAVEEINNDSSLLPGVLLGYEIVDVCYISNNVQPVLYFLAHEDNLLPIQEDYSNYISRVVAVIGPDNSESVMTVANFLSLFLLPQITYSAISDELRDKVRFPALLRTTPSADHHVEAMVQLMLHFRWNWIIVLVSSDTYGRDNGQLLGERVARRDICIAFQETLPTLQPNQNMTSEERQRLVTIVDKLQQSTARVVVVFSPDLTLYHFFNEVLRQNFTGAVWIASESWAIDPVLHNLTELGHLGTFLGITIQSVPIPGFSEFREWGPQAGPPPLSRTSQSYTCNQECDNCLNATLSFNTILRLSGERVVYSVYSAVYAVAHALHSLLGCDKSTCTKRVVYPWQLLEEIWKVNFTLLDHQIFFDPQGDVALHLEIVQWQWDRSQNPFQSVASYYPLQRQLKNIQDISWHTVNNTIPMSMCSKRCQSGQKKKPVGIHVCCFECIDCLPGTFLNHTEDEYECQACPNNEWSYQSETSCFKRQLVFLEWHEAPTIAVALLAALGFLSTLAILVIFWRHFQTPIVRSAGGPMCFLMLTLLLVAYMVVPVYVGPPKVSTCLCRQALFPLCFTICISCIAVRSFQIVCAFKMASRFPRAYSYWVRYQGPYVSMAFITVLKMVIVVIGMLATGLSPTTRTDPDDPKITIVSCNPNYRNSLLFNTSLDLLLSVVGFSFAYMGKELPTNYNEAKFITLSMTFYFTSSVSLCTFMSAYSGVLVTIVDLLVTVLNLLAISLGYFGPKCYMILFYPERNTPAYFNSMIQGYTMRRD", "T1 sequence (Q7RTX0 21-852 C757R)": "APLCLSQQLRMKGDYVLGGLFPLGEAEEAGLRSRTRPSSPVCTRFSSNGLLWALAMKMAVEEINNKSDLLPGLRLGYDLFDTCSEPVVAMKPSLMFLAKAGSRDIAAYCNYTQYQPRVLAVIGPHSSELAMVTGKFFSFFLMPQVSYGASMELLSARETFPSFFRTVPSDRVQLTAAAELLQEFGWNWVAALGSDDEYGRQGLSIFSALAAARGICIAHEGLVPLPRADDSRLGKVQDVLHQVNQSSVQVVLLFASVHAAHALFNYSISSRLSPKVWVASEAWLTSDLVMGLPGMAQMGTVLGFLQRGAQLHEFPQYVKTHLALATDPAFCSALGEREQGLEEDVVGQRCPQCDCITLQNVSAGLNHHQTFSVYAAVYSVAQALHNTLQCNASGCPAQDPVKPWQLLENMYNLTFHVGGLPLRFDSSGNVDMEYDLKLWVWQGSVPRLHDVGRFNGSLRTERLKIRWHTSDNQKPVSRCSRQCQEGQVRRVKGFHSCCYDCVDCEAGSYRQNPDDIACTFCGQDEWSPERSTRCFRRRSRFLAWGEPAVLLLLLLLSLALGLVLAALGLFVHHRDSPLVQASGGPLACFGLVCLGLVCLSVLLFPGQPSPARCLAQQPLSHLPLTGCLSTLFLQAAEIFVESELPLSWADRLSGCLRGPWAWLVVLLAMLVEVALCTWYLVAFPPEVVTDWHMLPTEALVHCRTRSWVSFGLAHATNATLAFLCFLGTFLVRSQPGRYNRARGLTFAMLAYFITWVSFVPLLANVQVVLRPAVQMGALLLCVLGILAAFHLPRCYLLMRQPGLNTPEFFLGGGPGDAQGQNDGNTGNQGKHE", "assay": "sweet taste receptor-expressing cell-based assay (calcium flux)", "details": "natural, high intensity and artificial sweeteners; FIGS. 23 and 24", "text": "FIG. 24 (A-C) is series of line graphs representing the data obtained in various dose response experiments using sweet taste receptor agonists in a sweet taste receptor-expressing cell-based assay (using cells of this invention). (A) The responses of a sweet taste receptor-expressing cell line to natural caloric sweeteners were plotted as a function of the agonist concentration. (B) Dose response curves of common artificial sweeteners in a sweet taste receptor-expressing cell-based assay. (C) Dose response curves of natural high-intensity sweeteners in a sweet taste receptor-expressing cell-based assay.\nFIG. 25 is a series of representative response traces generated after performing a sweet taste receptor-expressing cell-based assay using cells of this invention.\nTo identify a taste receptor modulator (e.g., umami taste receptor modulator or sweet taste receptor modulator), one exposes a cell or cell line of the invention to a test compound under conditions in which the taste receptor (e.g., umami taste receptor or sweet taste receptor) would be expected to be functional and then detects a statistically significant change (e.g., p<0.05) in taste receptor activity (e.g., umami taste receptor activity or sweet taste receptor activity) compared to a suitable control, e.g., cells that are not exposed to the test compound. Positive and/or negative controls using known agonists or antagonists and/or cells expressing different combinations of taste receptor subunits (e.g., umami taste receptor subunits or sweet taste receptor subunits) (and optionally a G protein) may also be used. In some embodiments, the taste receptor activity (e.g., umami taste receptor activity or sweet taste receptor activity) to be detected and/or measured is calcium release from the endoplasmic reticulum as a result of the down stream signaling events following taste receptor activation (e.g., umami taste receptor activation or sweet taste receptor activation). One of ordinary skill in the art would understand that various assay parameters may be optimized, e.g., signal to noise ratio.\nSee, e.g., FIGS. 23 and 24."}
{"smiles": "O=C(CO)[C@@H](O)[C@H](O)[C@H](O)CO", "note": "[fructose]", "values": [{"measurement": "response of sweet taste receptor cells and cell lines to known classes of sweet compounds", "value": "respond"}]}
